Laboratory results as given in US11939314B2, “Quinolin-2-one derivatives” (MERCK PATENT GMBH, priority 2016, dated 2024).

What was measured:
[1] = target: T1, c-Kit(V654A) (Homo sapiens, UniProt P10721, V654A); experiment: c-Kit(V654A) assay; type: biochemical; conditions: recombinant human c-Kit aa 544-end, 200 μM ATP, 1.4E-06 means 1.4×10^−6, read-out: Inhibition (IC50) of c-KIT (V654A)
T1 construct: amino acids 544-end containing the V654A mutation; GST (N)
Method in brief: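 Radiometric filter-binding read-out: substrate 33P incorporation counted by scintillation after P30 filtermat washes in 75 mM phosphoric acid and methanol. Enzyme: N-GST recombinant human c-Kit aa 544-end carrying V654A.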

[2] = target: T2, PDGFRalpha(V561D) (Homo sapiens, UniProt P16234, V561D); experiment: PDGFRalpha(V561D) assay; type: biochemical; conditions: recombinant human PDGFRalpha aa 550-end, 200 μM ATP, 1.4E-06 means 1.4×10^−6, read-out: Inhibition (IC50) of PDGFRα (V561D)
T2 construct: recombinant human PDGFRalpha, amino acids 550end containing the V561 D mutation; 6His (N)
Method in brief: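 Radiometric filter-binding assay: substrate phosphorylation by recombinant N-His-tagged human PDGFRα 550-end V561D was quenched with 3% phosphoric acid after 40 min at room temperature, then counted.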

T2 sequence (P16234 550-1089 V561D): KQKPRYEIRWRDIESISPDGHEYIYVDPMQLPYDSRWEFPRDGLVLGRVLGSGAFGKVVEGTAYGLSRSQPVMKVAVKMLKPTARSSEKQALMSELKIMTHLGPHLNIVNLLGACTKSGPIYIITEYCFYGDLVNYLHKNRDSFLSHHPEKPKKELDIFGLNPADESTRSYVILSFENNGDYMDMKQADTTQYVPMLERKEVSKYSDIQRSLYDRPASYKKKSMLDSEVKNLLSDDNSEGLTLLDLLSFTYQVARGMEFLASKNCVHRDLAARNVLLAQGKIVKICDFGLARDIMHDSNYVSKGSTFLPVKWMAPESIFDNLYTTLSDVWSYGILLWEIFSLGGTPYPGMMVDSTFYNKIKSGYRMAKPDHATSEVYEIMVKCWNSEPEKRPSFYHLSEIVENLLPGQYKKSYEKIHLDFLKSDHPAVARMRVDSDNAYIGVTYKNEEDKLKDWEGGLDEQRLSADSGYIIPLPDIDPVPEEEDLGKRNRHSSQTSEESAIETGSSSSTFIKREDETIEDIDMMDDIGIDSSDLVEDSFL
T1 sequence (P10721 544-976 V654A): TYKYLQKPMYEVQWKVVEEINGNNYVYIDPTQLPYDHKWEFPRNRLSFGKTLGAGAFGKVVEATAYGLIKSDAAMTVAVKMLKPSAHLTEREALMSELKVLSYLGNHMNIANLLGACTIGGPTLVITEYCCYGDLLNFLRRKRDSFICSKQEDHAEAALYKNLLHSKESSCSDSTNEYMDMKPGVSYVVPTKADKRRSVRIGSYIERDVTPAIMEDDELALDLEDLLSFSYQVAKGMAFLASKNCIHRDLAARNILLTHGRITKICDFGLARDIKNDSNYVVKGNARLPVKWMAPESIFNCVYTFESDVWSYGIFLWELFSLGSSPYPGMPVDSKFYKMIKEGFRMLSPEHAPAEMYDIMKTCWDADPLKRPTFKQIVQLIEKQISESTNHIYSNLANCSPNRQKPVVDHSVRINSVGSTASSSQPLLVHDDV

Row | SMILES | IC50 [1] [nM] | IC50 [2] [nM]
1 | O=C(c1cccc(-n2cc(-c3cc4cc(F)ccc4[nH]c3=O)nn2)c1)N1CCNCC1 [A125, 6-fluoro-3-{1-[3-(piperazine-1-carbonyl)-phenyl]-1H-[1,2,3]triazol-4-yl}-1H-quinolin-2-one] | 34 | 6
2 | O=C(c1ccc(-n2cc(-c3cc4ccc(Cl)cc4[nH]c3=O)nn2)cc1)N1CCNCC1 [A126, 7-chloro-3-{1-[4-(piperazine-1-carbonyl)-phenyl]-1H-[1,2,3]triazol-4-yl}-1H-quinolin-2-one] | 19 | 42
3 | O=C(c1ccc(-n2cc(-c3cc4c(F)c(F)ccc4[nH]c3=O)nn2)cc1)N1CCNCC1 [A127, 5,6-difluoro-3-{1-[4-(piperazine-1-carbonyl)-phenyl]-1H-[1,2,3]triazol-4-yl}-1H-quinolin-2-one] | 38 | 79
4 | O=C(c1ccc(-n2cc(-c3cc4cc(F)c(F)cc4[nH]c3=O)nn2)cc1)N1CCNCC1 [A128, 6,7-difluoro-3-{1-[4-(piperazine-1-carbonyl)-phenyl]-1H-[1,2,3]triazol-4-yl}-1H-quinolin-2-one] | 41 | 9.7
5 | O=c1[nH]c2ccc(F)cc2cc1-c1cn(-c2ccc(S(=O)(=O)N3CCNCC3)cc2)nn1 [A129, 6-fluoro-3-{1-[4-(piperazine-1-sulfonyl)-phenyl]-1H-[1,2,3]triazol-4-yl}-1H-quinolin-2-one] | 13 | 48
6 | O=c1[nH]c2cc(F)c(F)cc2cc1-c1cn(-c2ccc(OCCN3CCNCC3)cc2)nn1 [A130, 6,7-difluoro-3-{1-[4-(2-piperazin-1-yl-ethoxy)-phenyl]-1H-[1,2,3]triazol-4-yl}-1H-quinolin-2-one] | 35 | 170
7 | O=c1[nH]c2ccc(F)cc2cc1-c1cn(-c2ccc(OCCCN3CCNCC3)cc2)nn1 [A131, 6-fluoro-3-{1-[4-(3-piperazin-1-yl-propoxy)-phenyl]-1H-[1,2,3]triazol-4-yl}-1H-quinolin-2-one] | 9.7 | 38
8 | O=C(c1ccc(-n2cc(-c3cc4cc(F)ccc4[nH]c3=O)nn2)cc1)C1CCNCC1 [A132, 6-fluoro-3-{1-[4-(piperidine-4-carbonyl)-phenyl]-1H-[1,2,3]triazol-4-yl}-1H-quinolin-2-one] | 7.5 | 0.8
9 | O=c1[nH]c2ccc(F)cc2cc1-c1cn(-c2ccc(OCCC3CCNCC3)cc2)nn1 [A133, 6-fluoro-3-{1-[4-(2-piperidin-4-yl-ethoxy)-phenyl]-1H-[1,2,3]triazol-4-yl}-1H-quinolin-2-one] | 11 | 6.4
10 | O=c1[nH]c2cc(F)c(F)cc2cc1-c1cn(-c2ccc(OCCC3CCNCC3)cc2)nn1 [A134, 6,7-difluoro-3-{1-[4-(2-piperidin-4-yl-ethoxy)-phenyl]-1H-[1,2,3]triazol-4-yl}-1H-quinolin-2-one] | 17 | 16
11 | O=c1[nH]c2cc(F)c(F)cc2cc1-c1cn(-c2ccc(OCCCN3CCNCC3)cc2)nn1 [A135, 6,7-difluoro-3-{1-[4-(3-piperazin-1-yl-propoxy)-phenyl]-1H-[1,2,3]triazol-4-yl}-1H-quinolin-2-one] | 180 | 310
12 | O=C(c1ccc(-n2cc(-c3cc4cc(F)c(F)cc4[nH]c3=O)nn2)cc1)C1CCNCC1 [A136, 6,7-difluoro-3-{1-[4-(piperidine-4-carbonyl)-phenyl]-1H-[1,2,3]triazol-4-yl}-1H-quinolin-2-one] | 15 | 18
13 | Cc1ccc2[nH]c(=O)c(-c3cn(-c4ccc(C(=O)N5CCNCC5)cc4)nn3)cc2c1 [A137, 6-methyl-3-{1-[4-(piperazine-1-carbonyl)-phenyl]-1H-[1,2,3]triazol-4-yl}-1H-quinolin-2-one] | 40 | 42
14 | O=C(Cn1ccc2cc(-n3cc(-c4cc5c(F)cc(F)cc5[nH]c4=O)nn3)ccc21)N1CCNCC1 [A138, 5,7-difluoro-3-{1-[1-(2-oxo-2-piperazin-1-yl-ethyl)-1H-indol-5-yl]-1H-[1,2,3]triazol-4-yl}-1H-quinolin-2-one] | 11 | 86
15 | O=C(Cn1ccc2cc(-n3cc(-c4cc5cc(F)c(F)cc5[nH]c4=O)nn3)ccc21)N1CCNCC1 [A139, 6,7-difluoro-3-{1-[1-(2-oxo-2-piperazin-1-yl-ethyl)-1H-indol-5-yl]-1H-[1,2,3]triazol-4-yl}-1H-quinolin-2-one] | 12 | 3800
16 | O=C(COc1ccc(-n2cc(-c3cc4cc(F)c(F)cc4[nH]c3=O)nn2)cc1)N1CCNCC1 [A140, 6,7-difluoro-3-{1-[4-(2-oxo-2-piperazin-1-yl-ethoxy)-phenyl]-1H-[1,2,3]triazol-4-yl}-1H-quinolin-2-one] | 14 | 28

Row | SMILES | IC50 [1] [nM] | IC50 [2] [nM]
17 | O=C(COc1ccc(-n2cc(-c3cc4cc(F)ccc4[nH]c3=O)nn2)cc1)N1CCNCC1 [A141, 6-fluoro-3-{1-[4-(2-oxo-2-piperazin-1-yl-ethoxy)-phenyl]-1H-[1,2,3]triazol-4-yl}-1H-quinolin-2-one] | 3.8 | 2.8
18 | O=C(c1ccc(-n2cc(-c3cc4ccc(C(F)(F)F)cc4[nH]c3=O)nn2)cc1)N1CCNCC1 [A142, 3-{1-[4-(piperazine-1-carbonyl)-phenyl]-1H-[1,2,3]triazol-4-yl}-7-trifluoromethyl-1H-quinolin-2-one] | 280 | 2800
19 | NC1CCN(C(=O)c2ccc(-n3cc(-c4cc5cc(F)c(F)cc5[nH]c4=O)nn3)cc2)CC1 [A143, 3-{1-[4-(4-amino-piperidine-1-carbonyl)-phenyl]-1H-[1,2,3]triazol-4-yl}-6,7-difluoro-1H-quinolin-2-one] | 19 | 310
20 | NC1CCN(C(=O)c2ccc(-n3cc(-c4cc5cc(F)ccc5[nH]c4=O)nn3)cc2)CC1 [A144, 3-{1-[4-(4-amino-piperidine-1-carbonyl)-phenyl]-1H-[1,2,3]triazol-4-yl}-6-fluoro-1H-quinolin-2-one] | 12 | 170
21 | O=C1CNCCN1c1ccc(-n2cc(-c3cc4cc(F)c(F)cc4[nH]c3=O)nn2)cc1 [A145, 6,7-difluoro-3-{1-[4-(2-oxo-piperazin-1-yl)-phenyl]-1H-[1,2,3]triazol-4-yl}-1H-quinolin-2-one] | 22 | 180
22 | CN1CCN(C(=O)c2ccc(-n3cc(-c4cc5c(F)cccc5[nH]c4=O)nn3)cc2)CC1 [A149, 5-fluoro-3-{1-[4-(4-methyl-piperazine-1-carbonyl)-phenyl]-1H-[1,2,3]triazol-4-yl}-1H-quinolin-2-one] | 6 | 12
23 | CN1CCN(C(=O)c2ccc(-n3cc(-c4cc5cccc(F)c5[nH]c4=O)nn3)cc2)CC1 [A150, 8-fluoro-3-{1-[4-(4-methyl-piperazine-1-carbonyl)-phenyl]-1H-[1,2,3]triazol-4-yl}-1H-quinolin-2-one] | 49 | 37
24 | CN1CCN(C(=O)c2ccc(-n3cc(-c4cc5cc(Cl)ccc5[nH]c4=O)nn3)cc2)CC1 [A151, 6-chloro-3-{1-[4-(4-methyl-piperazine-1-carbonyl)-phenyl]-1H-[1,2,3]triazol-4-yl}-1H-quinolin-2-one] | 3 | 1
25 | CN1CCN(C(=O)c2ccc(-n3cc(-c4cc5c(F)cc(F)cc5[nH]c4=O)nn3)cc2)CC1 [A152, 5,7-difluoro-3-{1-[4-(4-methyl-piperazine-1-carbonyl)-phenyl]-1H-[1,2,3]triazol-4-yl}-1H-quinolin-2-one] | 11 | 23
26 | CN1CCN(C(=O)c2cccc(-n3cc(-c4cc5cc(F)ccc5[nH]c4=O)nn3)c2)CC1 [A153, 6-Fluoro-3-{1-[3-(4-methyl-piperazine-1-carbonyl)-phenyl]-1H-[1,2,3]triazol-4-yl}-1H-quinolin-2-one] | 24 | 4
27 | CN1CCN(C(=O)c2ccc(-n3cc(-c4cc5ccc(Cl)cc5[nH]c4=O)nn3)cc2)CC1 [A154, 7-chloro-3-{1-[4-(4-methyl-piperazine-1-carbonyl)-phenyl]-1H-[1,2,3]triazol-4-yl}-1H-quinolin-2-one] | 11 | 3
28 | CN1CCCN(c2ccc(-n3cc(-c4cc5cc(F)cnc5[nH]c4=O)nn3)cc2)CC1 [A155, 6-fluoro-3-{1-[4-(4-methyl-[1,4]diazepan-1-yl)-phenyl]-1H-[1,2,3]triazol-4-yl}-1H-[1,8]naphthyridin-2-one] | 81 | 61
29 | CN1CCN(C(=O)c2ccc(-n3cc(-c4cc5c(F)c(F)ccc5[nH]c4=O)nn3)cc2)CC1 [A156, 5,6-difluoro-3-{1-[4-(4-methyl-piperazine-1-carbonyl)-phenyl]-1H-[1,2,3]triazol-4-yl}-1H-quinolin-2-one] | 26 | 40
30 | CN1CCN(C(=O)c2ccc(-n3cc(-c4cc5cc(F)c(F)cc5[nH]c4=O)nn3)cc2)CC1 [A157, 6,7-difluoro-3-{1-[4-(4-methyl-piperazine-1-carbonyl)-phenyl]-1H-[1,2,3]triazol-4-yl}-1H-quinolin-2-one] | 5.9 | 0.32
31 | CN1CCC(C(=O)c2ccc(-n3cc(-c4cc5cc(F)ccc5[nH]c4=O)nn3)cc2)CC1 [A161, 6-fluoro-3-{1-[4-(1-methyl-piperidine-4-carbonyl)-phenyl]-1H-[1,2,3]triazol-4-yl}-1H-quinolin-2-one] | 35 | 15
32 | CN1CCN(CCCOc2ccc(-n3cc(-c4cc5cc(F)c(F)cc5[nH]c4=O)nn3)cc2)CC1 [A162, 6,7-difluoro-3-(1-{4-[3-(4-methyl-piperazin-1-yl)-propoxy]-phenyl}-1H-[1,2,3]triazol-4-yl)-1H-quinolin-2-one] | 82 | 97
